Read-outs that look alike come from different tables or passages of the source.

Data set [1] deals with EA-hy 926 cells. Put plainly: Tumour angiogenic lesions induced by Ea-hy 926 cells in nude mice, no drug pre-treatment. Type of data set: in vivo. The note with it: treatment started on the day of cell inoculation, 5 days. The procedure: Mice were inoculated subcutaneously into the lower back with Ea-hy 926 cells (3×10^6 cells/animal in 0.2 ml of 10% FBS RPMI 1640) or with the resuspension medium, all mixed with 0.2 ml of growth factor-depleted matrigel (BD Biosciences, Bedford, Mass.) prior to inoculation as described above. […] Treatment was then continued for 5 days, until sacrifice. The size of the lesions present at the injection site was evaluated daily by caliper measurement. External lesion area was then calculated as the product of the two major lesion diameters. The mean size (cm^2) of the lesions present at the injection site is shown.
To determine whether HIV-PI could inhibit the growth of a malignant angiogenic tumour, nude mice were inoculated with the EA-hy 926 cell line. This cell line is derived from a hybrid between H-UVEC and human lung adeno-carcinoma cells (Edgell et al, PNAS 1983), retains most of the endothelial cell markers and is used as an angiogenic tumour model (Albini et al, Nat Med 1996; Albini et al, PNAS 1995; Cai et al, Lab Invest 1999). HIV-PI were administered to nude mice starting 2 days prior to tumour cell inoculation. […] Similarly, the external tumour area was reduced in mice treated with both HIV-PI (P<0.05), reaching the size of the negative controls (Table 7). […] Inhibition of tumour growth was also observed in the absence of drug pre-treatment (FIG. 25). […]

Data set [2] has as its system angiogenesis induced by bFGF or VEGF in the chorioallantoic membrane. The note with it: for VEGF-induced angiogenesis, % of the untreated VEGF control / bFGF-induced angiogenesis, % of the untreated bFGF control / Average vessel (number/mm^2 ± SD): HIV-PI 10 μM; for basal CAM vascularization: drug administered alone; for toxicity in CAM: in vivo. As for the experimental part:
CAM assays were performed with 1 mm^3 sterilized gelatin sponges (Gelfoam; Upjohn Co, Kalamazoo, Mich.) adsorbed with bFGF or VEGF (1 μg or 100 ng, respectively) in 5 μl of PBS, and with buffer, HIV-PI (10 μM) or taxol (250 nM) (Bristol-Myers Squibb Co., Princeton, N.J.) as described (Ribatti et al, Int. J. Dev. Biol., 1996). CAM were examined daily until day 12 under an Olympus SZX9 stereomicroscope. Images (1024×1024 pixels) were captured at a distance of 2 mm from the edge of the sponge using a cooled digital CCD Hamamatsu ORCA camera (Hamamatsu Photonics Italia, Arese, Italy). Vessel number was quantified with the ImageProPlus 4.0 imaging software (Media Cybernetics, Silver Spring, Md.) in 3 randomly selected areas per egg ([…]).
Results are expressed as the average number of vessels/mm^2±SD from the indicated number of CAM per experimental condition.

Data set [3] relates to endothelial/lung carcinoma hybrid (Ea-hy 926) cells. Put plainly: Invasion assay of Ea-hy 926 cells in response to bFGF. Type of data set: cell-based, human. The note with it: 1 μM. As for the experimental part:
The assays have been performed essentially as described in key to FIG. 1. No growth factors were added to EA-hy 926 cells since they produce factors which mediates cell growth in autocrine fashion (Edgell et al., 1983, Albini et al., PNAS 1995, Albini et al., Nat Med 1996). […] The assays have been performed essentially as described in legend to FIG. 3. Average and variation range of two independent experiments each performed in duplicate are shown.

The subject of data set [4] is VEGF. Put plainly: VEGF production by KS cells (ELISA). Type of data set: cell-based, human. Conditions: 0.1, 1 and 10 μM; 5 days + 24 hours. As for the experimental part:
After 24 hours of incubation, the supernatants of the cultures were tested by ELISA (R & D Systems, Minneapolis, Minn., USA) to determine the quantity of IL-6 present in the medium. The quantity of IL-6 is expressed in pg/ml of supernatant. The same tests were carried out for bFGF, VEGF, IL-1α and IL-1β by means of commercial ELISA kits.
KS cells secrete cytokines with an inflammatory, oedemigenic, angiogenic and proliferative activity with autocrine and paracrine effects (Ensoli and Stürzl, 1998). These factors mediate all the processes required for KS-like lesions formation (angiogenesis, cellular proliferation and invasion, inflammatory Infiltration, oedema) and vascular permeability and oedema induced by KS cells in nude mice. […] The quantity of bFGF, VEGF, IL-1 and IL-6 was dosed with immuno-enzymatic trials in the supernatants of the KS cells after 24 hours of culture in the absence of serum and in the continuous presence of the two HIV-PI (ELISA). […] Furthermore IL-6 plays a key role in the multicentric Cstleman's diseases and in the growth of lymphomas (Tosato et al., 1993; Peterson and Frizzera, 1993; Asou et al., 1998; Ramsay et al., 1994), another type of tumour whose incidence is reduced in patients treated with HIV-PI (International Collaboration on HIV and Cancer 2000).
For orientation: ELISA stands for enzyme-linked immunosorbent assay.

Data set [5] relates to EA-hy 926 cells. In words: Angiogenic tumours induced by EA-hy 926 cells in nude mice (drug pre-treatment). Conditions: EA-hy 926 cells 3×10^6; for No. of mice with macroscopic lesions/No. of inoculated mice / mice with macroscopic lesions (%): treatment since 2 days prior to inoculation. Type of data set: in vivo. As for the experimental part:
To determine whether HIV-PI could inhibit the growth of a malignant angiogenic tumour, nude mice were inoculated with the EA-hy 926 cell line. This cell line is derived from a hybrid between H-UVEC and human lung adeno-carcinoma cells (Edgell et al, PNAS 1983), retains most of the endothelial cell markers and is used as an angiogenic tumour model (Albini et al, Nat Med 1996; Albini et al, PNAS 1995; Cai et al, Lab Invest 1999). HIV-PI were administered to nude mice starting 2 days prior to tumour cell inoculation.
Mice were sacrificed 5-6 days after cell injection and lesions present at the injection site measured by caliper, and analyzed microscopically after H&E staining or by immuno-histochemical analysis. […] Tumour-associated angiogenesis was evaluated after immuno-histochemical staining for FVIII-RA or CD31 markers, as described in legend to Table 1. Shown are external lesion size (cm^2±SD) and the percentage of stained tumour tissue (±SD) as quantified by the KS300 image analysis software (Zeiss) (see methods).

Take `CC(C)(C)NC(=O)[C@@H]1CN(Cc2cccnc2)CCN1C[C@@H](O)C[C@@H](Cc1ccccc1)C(=O)N[C@H]1c2ccccc2C[C@H]1O` [Indinavir, indinavir]: in data set [1], the “regression of tumour angiogenic lesions (lesion size)” value is on record as “promote the regression”. In data set [2], the “VEGF-induced angiogenesis, % of the untreated VEGF control” value was 36%; the “bFGF-induced angiogenesis, % of the untreated bFGF control” value turned out to be 42%; the “basal CAM vascularization” value was “did not affect”; the “toxicity in CAM” value is “not associated with toxicity”. The “Average vessel (number/mm^2 ± SD)” value in data set [2] (VEGF 100 ng) turned out to be 7.70 ± 2.52 number/mm^2. Also, the “Average vessel (number/mm^2 ± SD)” value in data set [2] (bFGF 1 μg, taxol 250 nM) amounted to 8.22 ± 2.54 number/mm^2. In data set [3], the “invasion in response to bFGF” value was “inhibit”. The “production of VEGF by KS cells” value in data set [4] is given as “reduced”. Further, in data set [5], the “External lesion size (cm^2 ± SD)” value is 0.63 ± 0.17 cm^2, the “Tissue staining (area % ± SD) CD31” value is 0.70 ± 0.6%, the “Tissue staining (area % ± SD) FVIII-RA” value stood at 1.01 ± 1.5% and the “No. of mice with macroscopic lesions/No. of inoculated mice” value is 4/12. In data set [5], the “mice with macroscopic lesions (%)” value was found to be 33.3%. Further, the “mice with macroscopic lesions (%)” value in data set [5] (listed as indinavir) is 33%.
As for `CC(C)(C)NC(=O)[C@@H]1C[C@@H]2CCCC[C@@H]2CN1C[C@@H](O)[C@H](Cc1ccccc1)NC(=O)[C@H](CC(N)=O)NC(=O)c1ccc2ccccc2n1` [Saquinavir, saquinavir], the “regression of tumour angiogenic lesions (lesion size)” value in data set [1] was “promote the regression”. In addition, in data set [2], the “VEGF-induced angiogenesis, % of the untreated VEGF control” value was 11%; the “bFGF-induced angiogenesis, % of the untreated bFGF control” value is on record as 19%; the “basal CAM vascularization” value is listed as “did not affect”; the “toxicity in CAM” value was “not associated with toxicity”. The “Average vessel (number/mm^2 ± SD)” value in data set [2] (VEGF 100 ng) stood at 5.39 ± 0.67 number/mm^2. Further, the “Average vessel (number/mm^2 ± SD)” value in data set [2] (bFGF 1 μg, taxol 250 nM) was found to be 6.08 ± 1.84 number/mm^2. In addition, in data set [3], the “invasion in response to bFGF” value was “inhibit”. The “production of VEGF by KS cells” value in data set [4] is listed as “reduced”. In data set [5], the “External lesion size (cm^2 ± SD)” value turned out to be 0.55 ± 0.14 cm^2, the “Tissue staining (area % ± SD) CD31” value was determined as 0.08 ± 0.1%, the “Tissue staining (area % ± SD) FVIII-RA” value is 0.71 ± 0.8% and the “No. of mice with macroscopic lesions/No. of inoculated mice” value is reported as 3/12. Also, in data set [5], the “mice with macroscopic lesions (%)” value was found to be 25%.

These data come from patent US20060088545A1, “Use of inhibitors of the protease of the human immunodeficiency virus (hiv) to block cell migration and/or invasion, tissue infiltration and oedema for the therary of diseases associated therewith” (priority 2001, published 2006).
